Measured values from ChEMBL document CHEMBL1201862, “PubChem BioAssay data set” (2004).
Calls of active or inactive are those of the source.

How the values were obtained:
[1] = molecular target: Apoptotic protease-activating factor 1 (Homo sapiens, UniProt O14727); format: functional
[2] = molecular target: Histone-lysine N-methyltransferase NSD2 (Homo sapiens, UniProt O96028); format: biochemical
[3] = molecular target: Induced myeloid leukemia cell differentiation protein Mcl-1 (Homo sapiens, UniProt Q07820); format: functional
Sequence of Induced myeloid leukemia cell differentiation protein Mcl-1 (Q07820 whole entry): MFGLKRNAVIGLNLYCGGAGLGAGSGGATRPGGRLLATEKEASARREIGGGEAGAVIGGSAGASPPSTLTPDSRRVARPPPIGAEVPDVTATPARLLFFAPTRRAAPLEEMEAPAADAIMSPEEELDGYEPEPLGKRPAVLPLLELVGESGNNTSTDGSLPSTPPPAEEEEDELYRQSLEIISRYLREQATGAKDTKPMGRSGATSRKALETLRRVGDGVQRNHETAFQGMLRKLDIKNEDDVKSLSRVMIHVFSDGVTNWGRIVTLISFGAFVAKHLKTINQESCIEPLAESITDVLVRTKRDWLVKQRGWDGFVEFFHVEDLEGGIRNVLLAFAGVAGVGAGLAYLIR

[4] = molecular target: T1, Small ubiquitin-related modifier 2 (Homo sapiens, UniProt P61956); experiment: disruption of SUMO2 interaction with SIM peptide – biochemical, fluorescence polarization, uHTS hits, selectivity assay for SUMO1 interaction inhibitor project, dose response (AID 624385); format: functional; conditions: read-out: IC50_Mean
T1 sequence (P61956 whole entry): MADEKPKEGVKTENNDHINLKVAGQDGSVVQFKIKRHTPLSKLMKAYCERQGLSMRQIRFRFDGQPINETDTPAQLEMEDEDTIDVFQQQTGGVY

[5] = molecular target: T1, Small ubiquitin-related modifier 2; experiment: SUMO2 binding disruption by SUMO1 hits – biochemical, FRET, human SUMO2, uHTS hits, selectivity assay for SUMO1 interaction inhibitor project, dose response (AID 624384); format: functional; conditions: read-out: IC50_Mean
[6] = test system: Streptococcus sp. 'group A'; experiment: Streptococcus pyogenes SK(-)GAS viability under kanamycin – luminescence, BacTiterGlo, confirmation, counter-screen for streptokinase expression inhibitor project, dose response (AID 1900); format: functional, organism-based
Streptococcus = experiment: GAS UMAA2166 growth inhibition – luminescence, BacTiterGlo, counter-screen for streptokinase expression inhibitor project, dose response (AID 1915); format: functional, organism-based;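 further: potency for reduction of bacterial viability or growth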
[7] = viability of uninfected HEp-2 cells – cell-based, HTS, cytotoxicity control for RSV inhibitor project, dose response (AID 2410); format: functional; conditions: human respiratory syncytial virus
[8] = molecular target: T2, Small ubiquitin-related modifier 1 (Homo sapiens, UniProt P63165); experiment: SUMO1 protein-protein binding blockers, potency – biochemical, FRET, dose response (AID 624383); format: functional; conditions: read-out: IC50_Mean
T2 sequence (P63165 whole entry): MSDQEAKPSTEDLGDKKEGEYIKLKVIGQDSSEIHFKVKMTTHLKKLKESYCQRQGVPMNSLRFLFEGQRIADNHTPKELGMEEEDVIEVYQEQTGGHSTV

[9] = molecular target: T2, Small ubiquitin-related modifier 1; experiment: SUMO1 protein interaction blockers, potency – biochemical, fluorescence polarization, uHTS hits, dose response (AID 624382); format: functional; conditions: read-out: IC50_Mean
Streptokinase A = molecular target: T3, Streptokinase A (Streptococcus pyogenes serotype M1, UniProt P10520); experiment: viability-normalized secreted streptokinase activity reduction – plasminogen activation absorbance, OD405, dose response (AID 1914); format: functional, Streptococcus pyogenes M1 GAS;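 further: secreted streptokinase activity via plasminogen activation per viability signal from cell pellet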
T3 sequence (P10520 whole entry): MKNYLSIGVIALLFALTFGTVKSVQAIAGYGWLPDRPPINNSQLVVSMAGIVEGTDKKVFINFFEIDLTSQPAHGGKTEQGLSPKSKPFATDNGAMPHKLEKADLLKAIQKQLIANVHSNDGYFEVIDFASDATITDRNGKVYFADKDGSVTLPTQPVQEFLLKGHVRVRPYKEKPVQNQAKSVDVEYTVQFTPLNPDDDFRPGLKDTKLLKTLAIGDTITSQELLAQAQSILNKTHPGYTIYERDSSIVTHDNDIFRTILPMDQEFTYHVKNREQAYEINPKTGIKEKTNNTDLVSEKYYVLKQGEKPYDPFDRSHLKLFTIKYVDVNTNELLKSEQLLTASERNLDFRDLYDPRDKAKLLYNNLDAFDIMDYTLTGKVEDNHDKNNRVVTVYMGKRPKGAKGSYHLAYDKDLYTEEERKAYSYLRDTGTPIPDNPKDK

[10] = HGIII-sPLA2 enzyme inhibition potency – biochemical, QFRET, IC50, dose response (AID 743457);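 further: green fluorescence rise as the enzyme cleaves BODIPY PC-A2 in liposomes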
[11] = molecular target: T4, Methionyl-tRNA synthetase, putative (Trypanosoma brucei brucei, UniProt Q38C91); format: functional, Trypanosoma brucei brucei strain 927/4 GUTat10.1
T4 sequence (Q38C91 whole entry): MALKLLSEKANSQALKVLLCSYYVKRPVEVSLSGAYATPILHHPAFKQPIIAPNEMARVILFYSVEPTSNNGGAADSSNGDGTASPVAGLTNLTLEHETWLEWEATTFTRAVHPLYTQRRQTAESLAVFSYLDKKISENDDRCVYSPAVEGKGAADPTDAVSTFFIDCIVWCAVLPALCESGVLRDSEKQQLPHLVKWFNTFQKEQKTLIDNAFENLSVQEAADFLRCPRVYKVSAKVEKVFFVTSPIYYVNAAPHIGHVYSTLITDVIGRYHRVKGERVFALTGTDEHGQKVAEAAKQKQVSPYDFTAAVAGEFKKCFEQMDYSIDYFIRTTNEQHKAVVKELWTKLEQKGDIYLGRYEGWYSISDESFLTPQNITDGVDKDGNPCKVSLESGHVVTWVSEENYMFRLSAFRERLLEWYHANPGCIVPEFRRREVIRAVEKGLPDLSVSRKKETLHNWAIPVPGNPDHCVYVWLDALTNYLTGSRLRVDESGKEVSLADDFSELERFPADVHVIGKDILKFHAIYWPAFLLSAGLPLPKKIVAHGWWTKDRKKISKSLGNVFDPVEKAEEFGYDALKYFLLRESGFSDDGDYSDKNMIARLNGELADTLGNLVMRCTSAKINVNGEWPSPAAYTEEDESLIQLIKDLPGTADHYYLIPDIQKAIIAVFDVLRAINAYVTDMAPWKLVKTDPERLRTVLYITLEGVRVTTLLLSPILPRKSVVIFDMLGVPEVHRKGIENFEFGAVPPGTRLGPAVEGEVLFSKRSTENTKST

HeLa = experiment: ATP-based viability loss in HeLa cells – cell-based, CellTiter-Glo luminescence, cherry-pick samples, cytotoxicity control for MITF activator project, dose response (AID 540259); format: functional; conditions: Homo sapiens
[12] = Counterscreen for inhibitors of Trypanosoma brucei methionyl tRNA synthetase (MetRS): Luminescence-based cell-based high throughput dose response assay to identify compounds that are cytotoxic to Jurkat human T lymphocyte cells.; format: functional
Coagulation factor XII = molecular target: T5, Coagulation factor XII (Homo sapiens, UniProt P00748); format: functional;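 further: activated factor XIIa alpha cleaving a fluorogenic AMC peptide substrate; inhibitor potency from loss of enzyme activity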
T5 sequence (P00748 whole entry): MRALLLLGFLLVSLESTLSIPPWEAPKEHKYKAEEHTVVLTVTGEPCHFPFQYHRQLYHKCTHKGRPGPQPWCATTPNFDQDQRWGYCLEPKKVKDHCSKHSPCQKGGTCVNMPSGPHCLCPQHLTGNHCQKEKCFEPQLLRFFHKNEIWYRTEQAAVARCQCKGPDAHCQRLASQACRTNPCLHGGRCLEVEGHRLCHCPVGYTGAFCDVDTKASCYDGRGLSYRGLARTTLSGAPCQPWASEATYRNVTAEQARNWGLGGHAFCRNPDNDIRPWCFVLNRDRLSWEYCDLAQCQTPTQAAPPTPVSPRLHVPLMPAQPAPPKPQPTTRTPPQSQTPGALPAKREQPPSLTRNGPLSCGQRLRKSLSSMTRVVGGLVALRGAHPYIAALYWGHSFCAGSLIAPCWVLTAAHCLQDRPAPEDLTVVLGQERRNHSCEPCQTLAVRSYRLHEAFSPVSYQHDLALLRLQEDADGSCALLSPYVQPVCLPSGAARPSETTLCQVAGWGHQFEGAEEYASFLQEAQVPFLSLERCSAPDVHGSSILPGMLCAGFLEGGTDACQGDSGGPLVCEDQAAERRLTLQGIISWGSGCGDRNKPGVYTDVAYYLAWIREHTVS

[13] = molecular target: T4, Methionyl-tRNA synthetase, putative; format: functional, Trypanosoma brucei brucei strain 927/4 GUTat10.1; remark: listed apart in the source
[14] = NIH3T3 cell viability loss – ATP luminescence, mouse fibroblasts, counter-screen, dose response (AID 2010); format: functional, cell-based;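 further: cells exposed to compound for about 90 hours before reading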
[15] = molecular target: Photoreceptor-specific nuclear receptor (Homo sapiens, UniProt Q9Y5X4); format: functional, cell-based;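 further: CHO-S cells with Gal4-NCOR and VP16-NR2E3 two-hybrid luciferase reporter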
Sequence of Photoreceptor-specific nuclear receptor (Q9Y5X4 whole entry, the tested form may be a part): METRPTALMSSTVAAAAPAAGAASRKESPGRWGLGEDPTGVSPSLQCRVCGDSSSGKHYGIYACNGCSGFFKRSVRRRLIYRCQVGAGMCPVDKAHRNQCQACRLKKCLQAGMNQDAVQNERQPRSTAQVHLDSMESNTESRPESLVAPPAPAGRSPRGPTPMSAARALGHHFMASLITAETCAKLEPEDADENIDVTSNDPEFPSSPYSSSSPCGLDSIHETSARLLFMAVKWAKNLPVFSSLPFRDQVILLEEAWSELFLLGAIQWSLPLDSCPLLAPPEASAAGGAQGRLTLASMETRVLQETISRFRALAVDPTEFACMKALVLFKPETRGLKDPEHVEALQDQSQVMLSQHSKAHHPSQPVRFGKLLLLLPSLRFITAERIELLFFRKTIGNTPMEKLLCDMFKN

[16] = Trypanosoma cruzi growth suppression in host cells – NIH3T3 host cells, beta-gal luminescence, confirmation (AID 2044); format: functional, cell-based;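 further: intracellular parasites grown in NIH/3T3 mouse fibroblasts as host cells; luminescent beta-galactosidase reporter signal from transgenic T. cruzi replicating inside host cells; inhibitors lower the luminescence signal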
BHK-21 = experiment: viability loss in BHK-21 cells – cell-based, plate reader, cherry-pick samples, cytotoxicity control, dose response (AID 687030); format: functional; conditions: Mesocricetus auratus
[17] = microbe, parasite or virus in culture; format: functional; conditions: Mycobacterium tuberculosis
[18] = molecular target: T6, Corticotropin-releasing factor receptor 2/Corticotropin-releasing factor-binding protein (Homo sapiens, UniProt P24387+Q13324); experiment: activators of CRF receptor 2 with binding protein – uHTS hits, confirmation (AID 602473); format: functional; conditions: read-out: EC50_Mean
T6 sequence (Q13324 whole entry): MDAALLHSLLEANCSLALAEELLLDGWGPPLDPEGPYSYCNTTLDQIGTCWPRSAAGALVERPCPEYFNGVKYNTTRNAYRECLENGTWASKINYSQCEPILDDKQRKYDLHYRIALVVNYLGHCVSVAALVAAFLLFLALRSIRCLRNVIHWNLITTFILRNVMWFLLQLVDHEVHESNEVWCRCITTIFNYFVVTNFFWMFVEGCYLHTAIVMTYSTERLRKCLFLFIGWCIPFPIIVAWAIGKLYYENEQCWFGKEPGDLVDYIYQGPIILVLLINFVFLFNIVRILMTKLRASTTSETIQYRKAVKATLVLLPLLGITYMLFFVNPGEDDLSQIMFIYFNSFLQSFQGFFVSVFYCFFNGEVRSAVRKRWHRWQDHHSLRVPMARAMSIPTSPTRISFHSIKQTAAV
T6 sequence (P24387 whole entry): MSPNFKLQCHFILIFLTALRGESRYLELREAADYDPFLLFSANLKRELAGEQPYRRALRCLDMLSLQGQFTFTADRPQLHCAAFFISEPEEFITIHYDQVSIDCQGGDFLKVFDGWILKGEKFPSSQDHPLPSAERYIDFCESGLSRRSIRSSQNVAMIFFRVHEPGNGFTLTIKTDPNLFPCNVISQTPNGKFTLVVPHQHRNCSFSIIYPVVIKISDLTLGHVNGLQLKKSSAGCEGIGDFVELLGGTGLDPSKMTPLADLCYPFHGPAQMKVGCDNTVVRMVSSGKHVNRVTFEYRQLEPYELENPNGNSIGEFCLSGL

[19] = blockers of CRF-binding protein–CRF-R2 complex – cell-based, uHTS hits, 384-well, dose response (AID 651639); format: functional, Homo sapiens; conditions: read-out: IC50_Mean
[20] = molecular target: T6, Corticotropin-releasing factor receptor 2/Corticotropin-releasing factor-binding protein; experiment: Dose Response confirmation of uHTS hits for small molecule antagonists of the CRF-binding protein and CRF-R2 receptor complex.; format: functional; conditions: read-out: IC50_Mean

Sequence of Apoptotic protease-activating factor 1 (O14727 whole entry): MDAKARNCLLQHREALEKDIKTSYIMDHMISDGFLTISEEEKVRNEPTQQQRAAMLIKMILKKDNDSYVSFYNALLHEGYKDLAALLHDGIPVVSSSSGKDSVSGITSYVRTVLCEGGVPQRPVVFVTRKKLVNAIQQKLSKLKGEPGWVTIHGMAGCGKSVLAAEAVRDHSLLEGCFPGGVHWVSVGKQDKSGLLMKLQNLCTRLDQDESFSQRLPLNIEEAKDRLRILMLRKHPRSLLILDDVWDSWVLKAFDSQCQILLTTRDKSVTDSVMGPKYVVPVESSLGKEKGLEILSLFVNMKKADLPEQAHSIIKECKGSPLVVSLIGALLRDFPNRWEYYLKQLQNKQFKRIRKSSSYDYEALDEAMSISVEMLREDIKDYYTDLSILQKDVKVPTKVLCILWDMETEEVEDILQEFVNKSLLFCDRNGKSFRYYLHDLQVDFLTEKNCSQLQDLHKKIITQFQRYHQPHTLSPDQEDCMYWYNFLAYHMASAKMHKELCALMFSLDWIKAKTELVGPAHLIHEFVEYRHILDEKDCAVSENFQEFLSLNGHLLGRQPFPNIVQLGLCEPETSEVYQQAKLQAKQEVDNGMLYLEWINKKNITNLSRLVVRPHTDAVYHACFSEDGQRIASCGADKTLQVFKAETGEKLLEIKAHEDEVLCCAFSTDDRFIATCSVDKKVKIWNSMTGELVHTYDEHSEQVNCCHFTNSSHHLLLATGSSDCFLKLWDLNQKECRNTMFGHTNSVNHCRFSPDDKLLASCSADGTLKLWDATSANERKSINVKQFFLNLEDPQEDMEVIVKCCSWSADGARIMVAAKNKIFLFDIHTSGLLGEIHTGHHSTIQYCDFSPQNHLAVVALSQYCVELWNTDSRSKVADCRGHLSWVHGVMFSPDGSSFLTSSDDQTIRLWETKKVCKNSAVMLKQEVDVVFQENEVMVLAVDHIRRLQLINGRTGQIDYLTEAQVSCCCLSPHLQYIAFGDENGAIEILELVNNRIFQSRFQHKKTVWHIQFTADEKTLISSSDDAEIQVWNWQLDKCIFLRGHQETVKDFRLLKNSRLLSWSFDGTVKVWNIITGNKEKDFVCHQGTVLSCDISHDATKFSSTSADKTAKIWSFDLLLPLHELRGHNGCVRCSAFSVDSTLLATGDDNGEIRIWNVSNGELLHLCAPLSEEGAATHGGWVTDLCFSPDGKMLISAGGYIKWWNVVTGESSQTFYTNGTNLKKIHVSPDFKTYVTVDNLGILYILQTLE
Sequence of Histone-lysine N-methyltransferase NSD2 (O96028 whole entry): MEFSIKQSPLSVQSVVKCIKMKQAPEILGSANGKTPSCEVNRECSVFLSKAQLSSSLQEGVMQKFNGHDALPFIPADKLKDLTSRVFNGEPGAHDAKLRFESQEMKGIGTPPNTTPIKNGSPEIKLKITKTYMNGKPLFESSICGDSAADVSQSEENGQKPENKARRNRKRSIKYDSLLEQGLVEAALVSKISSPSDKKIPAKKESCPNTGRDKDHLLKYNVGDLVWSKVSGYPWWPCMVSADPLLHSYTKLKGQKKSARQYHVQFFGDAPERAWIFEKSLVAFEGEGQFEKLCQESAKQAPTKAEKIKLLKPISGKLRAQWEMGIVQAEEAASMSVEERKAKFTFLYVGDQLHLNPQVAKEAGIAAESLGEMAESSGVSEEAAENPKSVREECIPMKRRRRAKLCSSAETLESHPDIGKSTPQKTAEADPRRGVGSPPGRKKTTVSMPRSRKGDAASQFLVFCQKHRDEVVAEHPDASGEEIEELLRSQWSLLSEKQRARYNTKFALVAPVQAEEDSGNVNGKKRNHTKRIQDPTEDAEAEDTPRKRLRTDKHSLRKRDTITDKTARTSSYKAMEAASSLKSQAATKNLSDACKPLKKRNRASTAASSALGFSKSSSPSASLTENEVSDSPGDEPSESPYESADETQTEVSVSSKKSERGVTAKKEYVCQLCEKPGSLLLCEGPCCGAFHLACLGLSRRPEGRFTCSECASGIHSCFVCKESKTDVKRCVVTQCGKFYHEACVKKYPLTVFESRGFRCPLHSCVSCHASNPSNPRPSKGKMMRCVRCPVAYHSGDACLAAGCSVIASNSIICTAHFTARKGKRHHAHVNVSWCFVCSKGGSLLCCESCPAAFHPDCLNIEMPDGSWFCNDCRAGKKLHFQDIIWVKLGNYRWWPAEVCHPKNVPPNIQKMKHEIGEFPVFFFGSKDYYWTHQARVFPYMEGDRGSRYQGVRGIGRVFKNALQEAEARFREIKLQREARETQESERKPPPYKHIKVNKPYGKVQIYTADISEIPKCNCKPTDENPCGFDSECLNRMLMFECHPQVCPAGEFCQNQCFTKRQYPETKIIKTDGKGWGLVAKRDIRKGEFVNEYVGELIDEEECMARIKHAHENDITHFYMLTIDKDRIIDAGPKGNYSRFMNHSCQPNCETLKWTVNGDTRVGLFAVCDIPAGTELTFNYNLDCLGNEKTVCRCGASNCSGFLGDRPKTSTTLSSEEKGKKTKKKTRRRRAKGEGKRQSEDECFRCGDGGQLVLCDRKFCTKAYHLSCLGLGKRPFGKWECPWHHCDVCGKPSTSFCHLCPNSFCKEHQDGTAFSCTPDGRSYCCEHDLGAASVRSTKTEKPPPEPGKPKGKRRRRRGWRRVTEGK

With `O=C1C(Cl)=C(NCCN2CCOCC2)C(=O)c2ccccc21` the IC50 [1] was 22 µM (active) and the AC50 [2] was 10.8 µM (active).

For `COc1ccc(O)c(C(=O)c2cc(SCC(=O)O)c3nc4sc5c(c4c(=O)n3c2)CCCC5)c1`, the IC50 [3] was 1.49 µM (active), the IC50 [4] was 6.24 µM (active) and the IC50 [5] was 46.2 µM (inactive). The EC50 [6] was 2.67 µM (active), the EC50 (Streptococcus) was 18.5 µM (inconclusive) and the CC50 [7] was 29.1 µM (active). For the same molecule, the IC50 [8] was 51.6 µM (inactive), the IC50 [9] was 2.14 µM (active) and the EC50 (Streptokinase A) was 16.4 µM (inconclusive).

For `Cc1ccccc1N=C(S)c1nc2ccccc2[nH]1`, the IC50 [10] was > 122 µM (inactive).

In the case of `O=C(Cn1c(/C=C/c2ccccc2)nc2ccccc21)Nc1ccc(F)cc1`, the IC50 [11] is reported as 8.74 µM (active), the AC50 (HeLa) is reported as 301 µM (active) and the IC50 [12] is reported as 83.3 µM (inactive). The IC50 (Coagulation factor XII) was > 50 µM (inactive) and the IC50 [13] was 12.2 µM (inactive).

In the case of `CCc1nnc(NC(=O)c2ccc(S(=O)(=O)N3CCCc4ccccc43)cc2)o1`, the EC50 [14] is reported as 5.54 µM (active), the EC50 [6] is reported as 1.21 µM (active) and the EC50 (Streptococcus) is reported as 13.3 µM (active). The IC50 [15] was 4.33 µM (active), the EC50 (Streptokinase A) was > 150 µM (not active) and the EC50 [16] was 2.19 µM (active).

For `NNC(=O)c1ccc(-c2ccccc2F)cc1`, the AC50 (BHK-21) was 19.3 µM (active).

With `Cc1cccc(N(C(=O)c2nsc(Cl)c2Cl)C(C(=O)NC2CCCC2)c2ccc(O)cc2)c1C` (stereo not drawn) the CC50 [17] was 39 µM (active), the EC50 [18] was > 53 µM (inactive) and the IC50 [19] was > 20 µM (inactive). The IC50 [20] was 6.4 µM (active).
